Results from patent US20240217967A1, “INDOLINE DERIVATIVES AS DDRS INHIBITORS” (CHIESI FARMACEUTICI S.P.A., priority 2021, published 2024).

How the values were obtained:
[1] = molecular target: T1, DDR1 (Homo sapiens, UniProt Q08345); test: DDR1 LanthaScreen Europium Kinase Binding assay; details: binding affinity; IC50 converted in Ki using Cheng-Prusoff; read-out: Ki DDR1
In short: (§1)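 Binding by TR-FRET tracer displacement: compounds incubated 1 h at room temperature with 5 nM DDR1 plus 20 nM Kinase Tracer 178, or 5 nM DDR2 plus 10 nM tracer, and 2 nM Eu anti-GST antibody in pH 7.5 HEPES/MgCl2/EGTA/BRIJ35 buffer. 665/615 nm ratio gave four-parameter IC50, converted to Ki via Cheng-Prusoff.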

[2] = molecular target: T2, DDR2 (Homo sapiens, UniProt Q16832); test: DDR2 LanthaScreen Europium Kinase Binding assay; details: binding affinity; IC50 converted in Ki using Cheng-Prusoff; read-out: Ki DDR2
T2 sequence (Q16832 22-855): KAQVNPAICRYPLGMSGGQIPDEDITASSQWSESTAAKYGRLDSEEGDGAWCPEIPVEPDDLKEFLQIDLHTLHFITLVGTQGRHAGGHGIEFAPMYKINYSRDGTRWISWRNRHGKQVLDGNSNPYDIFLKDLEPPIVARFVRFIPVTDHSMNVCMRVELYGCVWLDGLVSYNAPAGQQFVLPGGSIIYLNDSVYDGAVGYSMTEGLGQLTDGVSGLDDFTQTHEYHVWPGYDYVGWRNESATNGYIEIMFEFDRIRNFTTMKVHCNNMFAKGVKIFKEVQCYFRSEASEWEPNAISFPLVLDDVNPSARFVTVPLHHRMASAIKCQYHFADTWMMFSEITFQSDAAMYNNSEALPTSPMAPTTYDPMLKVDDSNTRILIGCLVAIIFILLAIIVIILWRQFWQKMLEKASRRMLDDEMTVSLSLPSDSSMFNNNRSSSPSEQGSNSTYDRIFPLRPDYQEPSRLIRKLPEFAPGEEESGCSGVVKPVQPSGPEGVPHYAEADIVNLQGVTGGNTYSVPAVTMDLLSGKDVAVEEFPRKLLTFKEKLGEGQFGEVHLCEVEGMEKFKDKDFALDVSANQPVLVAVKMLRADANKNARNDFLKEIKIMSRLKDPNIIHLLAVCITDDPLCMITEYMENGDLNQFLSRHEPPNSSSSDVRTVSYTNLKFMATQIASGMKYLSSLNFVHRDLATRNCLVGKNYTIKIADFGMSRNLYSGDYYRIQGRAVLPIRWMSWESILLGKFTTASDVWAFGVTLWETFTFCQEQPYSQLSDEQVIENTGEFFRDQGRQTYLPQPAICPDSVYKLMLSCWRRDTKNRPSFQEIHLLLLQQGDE
In short: as §1

[3] = molecular target: T1, DDR1; test: DDR1 cell based assay (PathHunter U2OS DDR1, collagen II stimulation); details: U2OS-DDR1 cells, bovine Type II Collagen stimulation
In short: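 Receptor activation measured by enzyme-fragment complementation luminescence in engineered U2OS cells. Compound added 30 min before overnight challenge with 20 μg/ml bovine collagen II; data scaled between vehicle and collagen-stimulated controls, IC50 derived by four-parameter variable-slope fitting.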

[4] = molecular target: T2, DDR2; test: DDR2 cell based assay (phospho-ELISA in HEK293T-DDR2 recombinant cells, collagen II stimulation); details: bovine Type II Collagen stimulation
Experimental: The inhibition of DDR2 phosphorylation by compounds was evaluated in HEK293T-DDR2 recombinant cells by phospho-ELISA assay. Briefly, HEK293T-DDR2 cells were seeded in poly-D-lysine-coated 24-well plates at a density of 250.000 cells/well and incubated for 1.5 hours at 37° C. and 5% CO2 in DMEM+10% FBS. After that, the medium was changed to serum-free DMEM and cells were incubated for 3 hours. Then. test compounds were added at different concentrations 30 minutes before stimulation with bovine Type II Collagen at 50 μg/ml for further 3 hours. For DDR2 phospho-ELISA assay (DuoSet IC Human Phospho-DDR2; R&D Systems), protein extracts were obtained by adding 60 μl/well of lysis buffer prepared according to the manufacturer's instructions. Protein concentration in the samples was determined by BCA assay and the levels of phospho-DDR2 were determined following R&D Systems indications. Raw data were normalized to maximal inhibition control (0% for normalization) and positive control (100% for normalization; cells treated with […] collagen II) and IC50 parameters were calculated in GraphPad Prism 8.0 software, using sigmoidal dose-response curve fitting with variable slope.

T1 sequence (Q08345 19-913): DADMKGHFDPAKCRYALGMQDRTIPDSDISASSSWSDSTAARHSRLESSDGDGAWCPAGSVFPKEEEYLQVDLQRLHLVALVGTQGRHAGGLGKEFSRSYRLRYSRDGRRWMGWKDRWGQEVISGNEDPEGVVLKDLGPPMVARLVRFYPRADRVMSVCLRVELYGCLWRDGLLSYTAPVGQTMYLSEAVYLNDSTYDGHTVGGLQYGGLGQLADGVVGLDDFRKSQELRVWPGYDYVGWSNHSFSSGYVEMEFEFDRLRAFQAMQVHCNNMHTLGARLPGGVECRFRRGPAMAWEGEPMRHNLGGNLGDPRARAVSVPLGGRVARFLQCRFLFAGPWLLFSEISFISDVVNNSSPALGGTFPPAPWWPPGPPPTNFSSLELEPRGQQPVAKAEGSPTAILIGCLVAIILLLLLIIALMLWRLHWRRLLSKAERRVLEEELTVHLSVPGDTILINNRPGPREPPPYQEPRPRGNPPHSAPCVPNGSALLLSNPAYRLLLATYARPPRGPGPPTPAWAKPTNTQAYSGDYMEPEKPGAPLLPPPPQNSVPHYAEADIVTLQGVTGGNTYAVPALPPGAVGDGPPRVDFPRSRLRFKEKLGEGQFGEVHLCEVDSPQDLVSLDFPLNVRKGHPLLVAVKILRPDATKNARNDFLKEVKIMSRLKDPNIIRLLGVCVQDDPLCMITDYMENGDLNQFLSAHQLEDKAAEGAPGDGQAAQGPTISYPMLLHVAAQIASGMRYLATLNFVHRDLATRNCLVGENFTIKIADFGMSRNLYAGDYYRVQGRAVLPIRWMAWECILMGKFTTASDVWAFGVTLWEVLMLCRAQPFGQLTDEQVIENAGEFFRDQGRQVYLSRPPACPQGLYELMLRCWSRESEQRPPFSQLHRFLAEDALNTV

SMILES	Ki [1] [nM]	Ki [2] [nM]	IC50 [3] [nM]	IC50 [4] [nM]
Cc1cn(-c2cc(NC(=O)c3ccc4c(c3)N(Cc3cnc5cnccn35)CC4)cc(C(F)(F)F)c2)cn1 [Example 3, 1-(imidazo[1,2-a]pyrazin-3-ylmethyl)-N-(3-(4-methyl-1H-imidazol-1-yl)-5-(trifluoromethyl)phenyl)indoline-6-carboxamide]	< 25	< 25	< 25	50 to 80
Cc1n[nH]c2ncc(CN3CCc4ccc(C(=O)Nc5ccc(CN(C)C)c(C(F)(F)F)c5)cc43)cc12 [Example 69, N-(4-((dimethylamino)methyl)-3-(trifluoromethyl)phenyl)-1-((3-methyl-1H-pyrazolo[3,4-b]pyridin-5-yl)methyl)indoline-6-carboxamide]	< 25	< 25	< 25	< 25
CC1CN(Cc2cnc3cnccn23)c2cc(C(=O)Nc3cccc(C(F)(F)F)c3)ccc21 (stereo not drawn) [Example 31, 1-(imidazo[1,2-a]pyrazin-3-ylmethyl)-3-methyl-N-(3-(trifluoromethyl)phenyl)indoline-6-carboxamide]	< 25	< 25	< 25	50 to 80
Cc1cn(-c2cc(C(=O)Nc3ccc4c(c3)N(Cc3cnc5cnccn35)CC4)cc(C(F)(F)F)c2)cn1 [Example 22, N-(1-(imidazo[1,2-a]pyrazin-3-ylmethyl)indolin-6-yl)-3-(4-methyl-1H-imidazol-1-yl)-5-(trifluoromethyl)benzamide]	< 25	< 25	< 25	25 to 50
Cc1cn(-c2cc(NC(=O)c3ccc4c(c3)N(Cc3cnc5ccccn35)CC4)cc(C(F)(F)F)c2)cn1 [Example 1, 1-(imidazo[1,2-a]pyridin-3-ylmethyl)-N-(3-(4-methyl-1H-imidazol-1-yl)-5-(trifluoromethyl)phenyl)indoline-6-carboxamide]	< 25	< 25	< 25	50 to 80
Cc1cn(-c2cc(C(=O)Nc3ccc4c(c3)N(Cc3cnc5[nH]ncc5c3)CC4)cc(C(F)(F)F)c2)cn1 [Example 38, N-(1-((1H-pyrazolo[3,4-b]pyridin-5-yl)methyl)indolin-6-yl)-3-(4-methyl-1H-imidazol-1-yl)-5-(trifluoromethyl)benzamide]	< 25	< 25	< 25	50 to 80
Cc1n[nH]c2ncc(CN3CCc4ccc(C(=O)Nc5ccc(CN6CCN(C)CC6)c(C(F)(F)F)c5)cc43)cc12 [Example 65, 1-((3-methyl-1H-pyrazolo[3,4-b]pyridin-5-yl)methyl)-N-(4-((4-methylpiperazin-1-yl)methyl)-3-(trifluoromethyl)phenyl)indoline-6-carboxamide]	< 25	< 25	< 25	50 to 80
O=C(Nc1cccc(C(F)(F)F)c1)c1ccc2c(c1)N(Cc1cnc3[nH]ncc3c1)CC2 [Example 35, 1-((1H-pyrazolo[3,4-b]pyridin-5-yl)methyl)-N-(3-(trifluoromethyl)phenyl)indoline-6-carboxamide]	< 25	< 25	< 25	< 25
CC1CN(Cc2cnc3[nH]ncc3c2)c2cc(C(=O)Nc3cccc(C(F)(F)F)c3)ccc21 (single isomer, unassigned) [Example 34, 1-((1H-pyrazolo[3,4-b]pyridin-5-yl)methyl)-3-methyl-N-(3-(trifluoromethyl)phenyl)indoline-6-carboxamide]	< 25	< 25	< 25	25 to 50
Cc1n[nH]c2ncc(CN3CCc4ccc(C(=O)Nc5cc(CN6CCN(C)CC6)cc(C(F)(F)F)c5)cc43)cc12 [Example 68, 1-((3-methyl-1H-pyrazolo[3,4-b]pyridin-5-yl)methyl)-N-(3-((4-methylpiperazin-1-yl)methyl)-5-(trifluoromethyl)phenyl)indoline-6-carboxamide]	< 25	< 25	< 25	
CC(C)(c1cc(NC(=O)c2ccc3c(c2)N(Cc2cnc4ccccn24)CC3)no1)C(F)(F)F [Example 58, 1-(imidazo[1,2-a]pyridin-3-ylmethyl)-N-(5-(1,1,1-trifluoro-2-methylpropan-2-yl)isoxazol-3-yl)indoline-6-carboxamide]	25 to 50	< 25	< 25	
O=C(Nc1cc(OCCN2CCOCC2)cc(C(F)(F)F)c1)c1ccc2c(c1)N(Cc1cnc3cnccn13)CC2 [Example 53, 1-(imidazo[1,2-a]pyrazin-3-ylmethyl)-N-(3-(2-morpholinoethoxy)-5-(trifluoromethyl)phenyl)indoline-6-carboxamide]	< 25	< 25	50 to 80	
Cc1cn(-c2cc(NC(=O)c3ccc4c(c3)N(C(=O)c3cnc5cnccn35)CC4C)cc(C(F)(F)F)c2)cn1 (stereo not drawn) [Example 29, 1-(imidazo[1,2-a]pyrazine-3-carbonyl)-3-methyl-N-(3-(4-methyl-1H-imidazol-1-yl)-5-(trifluoromethyl)phenyl)indoline-6-carboxamide]	< 25	< 25	50 to 80	
CN(C)Cc1cc(NC(=O)c2ccc3c(c2)N(Cc2cnc4cnccn24)CC3)cc(C(F)(F)F)c1 [Example 51, N-(3-((dimethylamino)methyl)-5-(trifluoromethyl)phenyl)-1-(imidazo[1,2-a]pyrazin-3-ylmethyl)indoline-6-carboxamide]	< 25	< 25	25 to 50	
Cc1n[nH]c2ncc(CN3CCc4ccc(C(=O)Nc5cc(OCCN6CCCC6)cc(C(F)(F)F)c5)cc43)cc12 [Example 85, 1-((3-methyl-1H-pyrazolo[3,4-b]pyridin-5-yl)methyl)-N-(3-(2-(pyrrolidin-1-yl)ethoxy)-5-(trifluoromethyl)phenyl)indoline-6-carboxamide]	< 25	< 25	< 25	
CN1CCN(Cc2cc(NC(=O)c3ccc4c(c3)N(C(=O)c3cnc5ccccn35)CC4)cc(C(F)(F)F)c2)CC1 [Example 14, 1-(imidazo[1,2-a]pyridine-3-carbonyl)-N-(3-((4-methylpiperazin-1-yl)methyl)-5-(trifluoromethyl)phenyl)indoline-6-carboxamide]	< 25	< 25	25 to 50	
O=C(Nc1cc(CN2CCOCC2)cc(C(F)(F)F)c1)c1ccc2c(c1)N(Cc1cnc3cnccn13)CC2 [Example 49, 1-(imidazo[1,2-a]pyrazin-3-ylmethyl)-N-(3-(morpholinomethyl)-5-(trifluoromethyl)phenyl)indoline-6-carboxamide]	< 25	< 25	50 to 80	
CN1CCN(Cc2cc(C(=O)Nc3ccc4c(c3)N(Cc3ccc5ncsc5c3)CC4)cc(C(F)(F)F)c2)CC1 [Example 17, N-(1-(benzo[d]thiazol-6-ylmethyl)indolin-6-yl)-3-((4-methylpiperazin-1-yl)methyl)-5-(trifluoromethyl)benzamide]	< 25	< 25	25 to 50	
CC(C)(C)c1cc(NC(=O)c2ccc3c(c2)N(Cc2cnc4[nH]ncc4c2)CC3)on1 [Example 78, 1-((1H-pyrazolo[3,4-b]pyridin-5-yl)methyl)-N-(3-(tert-butyl)isoxazol-5-yl)indoline-6-carboxamide]	< 25	< 25	< 25	
